Assays:
[1] = test system: salmonella typhimurium strains (TA 100, TA 1535, TA 98, and TA 1537); test: Back mutation test (genotoxicity in bacteria), Salmonella strains; conditions: TA 100, TA 1535, TA 98, TA 1537; compared with negative control
Description: In order to evaluate genotoxicity in bacteria, a back mutation test was performed using histidine-requiring salmonella typhimurium strains (TA 100, TA 1535, TA 98, and TA 1537) and an E. coli strain (E. coli WP2 uvrA). As a result, a positive control has a substantially greater colony number than a negative control. […] Accordingly, it was confirmed that the ginger extract and shogaol all had stability in the genotoxicity test.

[2] = test system: C57BL/6 mouse having MPTP-induced Parkinson's disease; test: Pole test in MPTP-induced Parkinson's disease model; type: in vivo; conditions: 10 mg/kg oral once per day for 5 days, MPTP 30 mg/kg i.p.
Description: 7-week old C57BL/6 based male mice (19-22 g) were obtained and nurtured in an animal laboratory at Kyunghee University Graduate School of East-West Medicine
Science for one week or more for adaptation. Water and feed were freely supplied, and the temperature (22±2[…]), humidity (53±3%), and a cycle of brightness and darkness (12 hours) were automatically controlled. Shogaol used was obtained from WAKO Company (Japan).
Mice were divided into three groups, each of which consisted of 6 mice. A first group (control) and a second group (MPTP group) were orally administered once per day with 10% dimethyl sulfoxide in an amount of 5 ml per mouse weight kg for 5 days, and a third group (shogaol-administered group) was orally administered once per day with 10 mg/kg of shogaol dissolved in 10% dimethyl sulfoxide for 5 days. […]
On a day after the last day of the 5-day administration period, a pole test was performed using a pole having a height of 50 cm and a diameter of 1 cm. A C57bl/6 mouse was placed on the pole with its head upward, and a time during which the mouse turns a summit of the pole at an angle of 180° and moves downward until its four feet touch the ground was measured. […]

PC12 cells = test: Neurite outgrowth of PC12 cells treated with conditioned media of C6 cells; type: cell-based, mouse; conditions: 20 μM in C6 conditioned media, microscope, fourth day after treatment
Description: This test was performed using a glioma C6 cell line of […] which is known as a cell line that secretes a nerve growth factor (NGF), and a pheochromocytoma PC12 cell line of […] which is known as a cell line that grows neurite with respect to an NGF in a similar way as a neuron. C6 cells and PC12 cells were obtained from Korean Cell Line Bank (KCLB Nos. 10107 and 21721, respectively). C6 cells were cultured using DMEM media (Gibco BRL, USA) supplemented with 3.4 g/L of sodium bicarbonate (NaHCO3), 10% fetal bovine serum, and 1% penicillin-streptomycin antibiotics (10000 U/ml), and PC12 cells were cultured using RPMI1640 medium (Gibco BRL, USA) supplemented with 2.0 g/L of sodium bicarbonate, 10% horse serum, 5% fetal bovine serum, and 1% penicillin-streptomycin antibiotics (10000 U/ml). […]
C6 cells attached to a 100 mm culture vessel were separated from the culture vessel by using 0.25% Trypsin-EDTA (Gibco BRL, USA), and then 10 ml of fresh medium was added to the cells to prepare a cell suspension. Then, the number of viable cells was counted and calculated by using a cell number counter. The cells were divided based on the counted cell number such that 2×10^6 cells were contained in a 100 mm culture dish. […]

Structure (SMILES): CCCCC/C=C/C(=O)CCc1ccc(O)c(OC)c1 [shogaol, (E)-1-(4-hydroxy-3-methoxyphenyl)dec-4-en-3-one]
- colony number (back mutation) [1]: the colony number was not increased
- T-la (% of control), pole test [2]: 99.1 ± 8.11%
- growth of neurite of the PC12 cells (PC12 cells): increased

Source: patent US9844521B2, “Pharmaceutical composition comprising ginger extract or shogaol” (UNIVERSITY-INDUSTRY COOPERATION GROUP OF KYUNG HEE …, priority 2008, dated 2017)
